Data: patent US20070128217A1 (priority 2003, published 2007)

Columns and labels:
[1] = system: control sera (pooled serum of ten healthy LUMC hospital workers; commercial negative donor pooled serum from the Dutch bloodbank); assay type: binding, human; set-up: Binding of Control serum LUMC to linear peptides / Binding of Control serum Blood-bank to linear peptides / Binding of Control serum LUMC to looped peptides / Binding of Control Serum Blood-Bank to Looped peptides / Binding of Control serum LUMC to linear peptides of the protein M of SARS-CoV Urbani / Binding of Control serum Blood-bank to linear peptides of the protein M of SARS-CoV Urbani / Binding of Control serum LUMC to looped peptides of the protein M of SARS-CoV Urbani / Binding of Control Serum Blood-Bank to Looped peptides of the protein M of SARS-CoV Urbani: unit not given here
[2] = system: antibodies in sera from SARS patients (sera 1a, 1b, 2, 6, 37, 62, London, SARS-yellow, SARS-green); assay type: binding, human; set-up: Binding of serum 6 to linear peptides of protein X1 of SARS-CoV Urbani / Binding of serum 37 to linear peptides of protein X1 of SARS-CoV Urbani / Binding of serum 6 to looped/cyclic peptide (PEPSCAN-ELISA) / Binding of serum 37 to looped/cyclic peptide (PEPSCAN-ELISA) / Binding of serum 37 to looped/cyclic peptides of protein X1 of SARS-CoV Urbani / Binding of serum 6 to linear peptides of protein X2 / Binding of serum 37 to linear peptides of protein X2 / Binding of serum 37 to looped/cyclic peptides of protein X2 of SARS-CoV Urbani / Binding of serum 6 to linear peptides of protein M of SARS-CoV Urbani / Binding of serum 37 to linear peptides of protein M of SARS-CoV Urbani / Binding of serum 6 to looped/cyclic peptides of protein M of SARS-CoV Urbani / Binding of serum 37 to looped/cyclic peptides of protein M of SARS-CoV Urbani / Binding of serum 6 to linear peptides of protein X3 of SARS-CoV Urbani / Binding of serum 37 to linear peptides of protein X3 of SARS-CoV Urbani / Binding of serum 37 to looped/cyclic peptides of protein X3 of SARS-CoV Urbani / Binding of serum 6 to linear peptides of protein X4 of SARS-CoV Urbani / Binding of serum 37 to linear peptides of protein X4 of SARS-CoV Urbani / Binding of serum 37 to looped/cyclic peptides of protein X4 of SARS-CoV Urbani / Binding of serum 6 to linear peptides of protein X5 of SARS-CoV Urbani / Binding of serum 37 to linear peptides of protein X5 of SARS-CoV Urbani / Binding of serum 37 to looped/cyclic peptides of protein X5 of SARS-CoV Urbani / Binding of serum 6 to linear peptides of protein N of SARS-CoV Urbani / Binding of serum 37 to linear peptides of protein N of SARS-CoV Urbani / Binding of serum 6 to linear peptide (PEPSCAN-ELISA) / Binding of serum 1a to looped/cyclic peptides of protein N of SARS-CoV Urbani / Binding of serum 1b to looped/cyclic peptides of protein N of SARS-CoV Urbani / Binding of serum 2 to looped/cyclic peptides of protein N of SARS-CoV Urbani / Binding of serum 6 to looped/cyclic peptides of protein N of SARS-CoV Urbani / Binding of serum 37 to looped/cyclic peptides of protein N of SARS-CoV Urbani / Binding of serum 62 to looped/cyclic peptides of protein N of SARS-CoV Urbani / Binding of serum London to looped/cyclic peptides of protein N of SARS-CoV Urbani / Binding of serum SARS-green to looped/cyclic peptides of protein N of SARS-CoV Urbani: unit not given here
[3] = system: rabbit serum obtained by immunizing a rabbit with the SARS-CoV strain Frankfurt 1; assay type: binding; set-up: Binding of a rabbit serum to linear peptides / Binding of a rabbit serum to looped peptides / Rabbit serum linear peptides / Rabbit serum looped peptides / Binding of a rabbit serum to linear peptides of protein N of SARS-CoV Urbani (Rabbit serum linear peptides) / Binding of a rabbit serum to looped/cyclic peptides of protein N of SARS-CoV Urbani (Rabbit serum looped peptides): unit not given here

## KSKNPLLYDANYFVC
[1]
  Binding of Control Serum Blood-Bank to Looped peptides: 0.5
  Binding of Control serum Blood-bank to linear peptides: 0.3
  Binding of Control serum LUMC to linear peptides: 0.7
  Binding of Control serum LUMC to looped peptides: 0.6
[2]
  Binding of serum 1a to linear peptides of protein X1 of SARS-CoV Urbani: 0.7
  Binding of serum 1a to looped/cyclic peptide (PEPSCAN-ELISA): 0.6
  Binding of serum 1b to linear peptides of protein X1 of SARS-CoV Urbani: 0.4
  Binding of serum 1b to looped/cyclic peptide (PEPSCAN-ELISA): 0.5
  Binding of serum 2 to linear peptides of protein X1 of SARS-CoV Urbani: 0.4
  Binding of serum 2 to looped/cyclic peptide (PEPSCAN-ELISA): 0.4
  Binding of serum 6 to linear peptides of protein X1 of SARS-CoV Urbani: 0.4
  Binding of serum 6 to looped/cyclic peptide (PEPSCAN-ELISA): 0.3
  Binding of serum 37 to linear peptides of protein X1 of SARS-CoV Urbani: 0.5
  Binding of serum 37 to looped/cyclic peptide (PEPSCAN-ELISA): 0.6
  Binding of serum 62 to linear peptides of protein X1 of SARS-CoV Urbani: 0.4
  Binding of serum 62 to looped/cyclic peptide (PEPSCAN-ELISA): 0.6
  Binding of serum London to linear peptides of protein X1 of SARS-CoV Urbani: 0.2
  Binding of serum London to looped/cyclic peptide (PEPSCAN-ELISA): 0.2
  Binding of serum SARS-green to linear peptides of protein X1 of SARS-CoV Urbani: 0.2
  Binding of serum SARS-green to looped/cyclic peptide (PEPSCAN-ELISA): 0.4
  Binding of serum SARS-yellow to linear peptides of protein X1 of SARS-CoV Urbani: 0.3
  Binding of serum SARS-yellow to looped/cyclic peptide (PEPSCAN-ELISA): 0.4
[3]
  Binding of a rabbit serum to linear peptides: 0.1
  Binding of a rabbit serum to looped peptides: 0.6

## LAAVYRINWVTGGIA
[1]
  Binding of Control Serum Blood-Bank to Looped peptides of the protein M of SARS-CoV Urbani: 0.4
  Binding of Control serum Blood-bank to linear peptides of the protein M of SARS-CoV Urbani: 0.6
  Binding of Control serum LUMC to linear peptides of the protein M of SARS-CoV Urbani: 0.5
  Binding of Control serum LUMC to looped peptides of the protein M of SARS-CoV Urbani: 0.6
[2]
  Binding of serum 1a to linear peptides of protein M of SARS-CoV Urbani: 0.7
  Binding of serum 1a to looped/cyclic peptides of protein M of SARS-CoV Urbani: 0.8
  Binding of serum 1b to linear peptides of protein M of SARS-CoV Urbani: 0.5
  Binding of serum 1b to looped/cyclic peptides of protein M of SARS-CoV Urbani: 0.2
  Binding of serum 2 to linear peptides of protein M of SARS-CoV Urbani: 0.6
  Binding of serum 2 to looped/cyclic peptides of protein M of SARS-CoV Urbani: 0.5
  Binding of serum 6 to linear peptides of protein M of SARS-CoV Urbani: 0.3
  Binding of serum 6 to looped/cyclic peptides of protein M of SARS-CoV Urbani: 0.7
  Binding of serum 37 to linear peptides of protein M of SARS-CoV Urbani: 0.8
  Binding of serum 37 to looped/cyclic peptides of protein M of SARS-CoV Urbani: 0.5
  Binding of serum 62 to linear peptides of protein M of SARS-CoV Urbani: 0.9
  Binding of serum 62 to looped/cyclic peptides of protein M of SARS-CoV Urbani: 0.5
  Binding of serum London to linear peptides of protein M of SARS-CoV Urbani: 0.3
  Binding of serum London to looped/cyclic peptides of protein M of SARS-CoV Urbani: 0.2
  Binding of serum SARS-green to linear peptides of protein M of SARS-CoV Urbani: 0.3
  Binding of serum SARS-green to looped/cyclic peptides of protein M of SARS-CoV Urbani: 0.3
  Binding of serum SARS-yellow to linear peptides of protein M of SARS-CoV Urbani: 0.1
  Binding of serum SARS-yellow to looped/cyclic peptides of protein M of SARS-CoV Urbani: 0.3
[3]
  Rabbit serum linear peptides: 0.4
  Rabbit serum looped peptides: 0.0

## LAWIMLLQFAYSNRN
[1]
  Binding of Control Serum Blood-Bank to Looped peptides of the protein M of SARS-CoV Urbani: 0.6
  Binding of Control serum Blood-bank to linear peptides of the protein M of SARS-CoV Urbani: 0.6
  Binding of Control serum LUMC to linear peptides of the protein M of SARS-CoV Urbani: 0.2
  Binding of Control serum LUMC to looped peptides of the protein M of SARS-CoV Urbani: 0.6
[2]
  Binding of serum 1a to linear peptides of protein M of SARS-CoV Urbani: 0.6
  Binding of serum 1a to looped/cyclic peptides of protein M of SARS-CoV Urbani: 0.7
  Binding of serum 1b to linear peptides of protein M of SARS-CoV Urbani: 0.5
  Binding of serum 1b to looped/cyclic peptides of protein M of SARS-CoV Urbani: 0.7
  Binding of serum 2 to linear peptides of protein M of SARS-CoV Urbani: 0.4
  Binding of serum 2 to looped/cyclic peptides of protein M of SARS-CoV Urbani: 0.4
  Binding of serum 6 to linear peptides of protein M of SARS-CoV Urbani: 0.2
  Binding of serum 6 to looped/cyclic peptides of protein M of SARS-CoV Urbani: 0.7
  Binding of serum 37 to linear peptides of protein M of SARS-CoV Urbani: 0.7
  Binding of serum 37 to looped/cyclic peptides of protein M of SARS-CoV Urbani: 0.6
  Binding of serum 62 to linear peptides of protein M of SARS-CoV Urbani: 0.7
  Binding of serum 62 to looped/cyclic peptides of protein M of SARS-CoV Urbani: 0.6
  Binding of serum London to linear peptides of protein M of SARS-CoV Urbani: 0.2
  Binding of serum London to looped/cyclic peptides of protein M of SARS-CoV Urbani: 0.2
  Binding of serum SARS-green to linear peptides of protein M of SARS-CoV Urbani: 0.3
  Binding of serum SARS-green to looped/cyclic peptides of protein M of SARS-CoV Urbani: 0.4
  Binding of serum SARS-yellow to linear peptides of protein M of SARS-CoV Urbani: 0.0
  Binding of serum SARS-yellow to looped/cyclic peptides of protein M of SARS-CoV Urbani: 0.3
[3]
  Rabbit serum linear peptides: 0.8
  Rabbit serum looped peptides: 0.1

## LCALGKVLPFHRWHT
[1]
  Binding of Control Serum Blood-Bank to Looped peptides: 0.4
  Binding of Control serum Blood-bank to linear peptides: 0.7
  Binding of Control serum LUMC to linear peptides: 0.5
  Binding of Control serum LUMC to looped peptides: 0.6
[2]
  Binding of serum 1a to linear peptides of protein X5 of SARS-CoV Urbani: 0.7
  Binding of serum 1a to looped/cyclic peptides of protein X5 of SARS-CoV Urbani: 0.4
  Binding of serum 1b to linear peptides of protein X5 of SARS-CoV Urbani: 0.6
  Binding of serum 1b to looped/cyclic peptides of protein X5 of SARS-CoV Urbani: 0.2
  Binding of serum 2 to linear peptides of protein X5 of SARS-CoV Urbani: 0.7
  Binding of serum 2 to looped/cyclic peptides of protein X5 of SARS-CoV Urbani: 0.5
  Binding of serum 6 to linear peptides of protein X5 of SARS-CoV Urbani: 0.5
  Binding of serum 6 to looped/cyclic peptides of protein X5 of SARS-CoV Urbani: 0.4
  Binding of serum 37 to linear peptides of protein X5 of SARS-CoV Urbani: 0.7
  Binding of serum 37 to looped/cyclic peptides of protein X5 of SARS-CoV Urbani: 0.4
  Binding of serum 62 to linear peptides of protein X5 of SARS-CoV Urbani: 0.8
  Binding of serum 62 to looped/cyclic peptides of protein X5 of SARS-CoV Urbani: 0.6
  Binding of serum London to linear peptides of protein X5 of SARS-CoV Urbani: 0.9
  Binding of serum London to looped/cyclic peptides of protein X5 of SARS-CoV Urbani: 0.2
  Binding of serum SARS-green to linear peptides of protein X5 of SARS-CoV Urbani: 0.6
  Binding of serum SARS-green to looped/cyclic peptides of protein X5 of SARS-CoV Urbani: 0.4
  Binding of serum SARS-yellow to linear peptides of protein X5 of SARS-CoV Urbani: 0.2
  Binding of serum SARS-yellow to looped/cyclic peptides of protein X5 of SARS-CoV Urbani: 0.4
[3]
  Rabbit serum linear peptides: 0.7
  Rabbit serum looped peptides: 0.7
